# From patent US7476662B2, “Substituted tetracyclic imidazole derivatives, processes for their preparation, pharmaceutical compositions comprising them and their use as a medicine” (Janssen Pharmaceutica N.V., priority 2001, dated 2009)
# Legend:
# [1] = tested on: Sprague-Dawley rats; test: Changes in relevant physiological variables during treatment after severe CHI in rats; assay type: in vivo, rat; settings: median average change over entire treatment period, % change of initial value; 0.5 mg/kg/min 10 min then 0.1 mg/kg/min 50 min, started 20 min after severe CHI; n = 10
# Excerpt: A clinically relevant rat model for traumatic brain injury was used to test the compounds according to the invention. This model mimics several clinical features of traumatic brain injury, such as increased ICP, decreased cerebral perfusion pressure, morphologic alterations including diffuse axonal injury, neuronal necrosis and contusion, impairment of autoregulation of cerebral blood flow and reduction of brain oxygenation and was applied for screening drugs with ICP-lowering effects. Trauma was induced in intubated, isoflurane anesthetized (1.5% isoflurane in a mixture of 30% O2 and 70% N2O) Sprague-Dawley rats (380-400 g) stereotaxically positioned on a table mounted on 4 springs. A 400 g steel cylinder, protected with a 9 mm diameter silicon disc, was dropped on the unprotected skull from a height of either 70 cm or 50 cm (respectively ‘severe’ and ‘moderate’ head injury). The impact area was centered between bregma and lamda. ICP was recorded using a Codman microsensor probe inserted in the parietal cortex. In both severe and moderate head injuries the ICP increased immediately after trauma and remained elevated for several days. The severe head injury mode was used for the evaluation of pharmacological effects immediately after trauma (screening procedure). When survival and recovery from anesthesia was envisaged, the moderate head injury mode was applied. In pharmacological studies, animals with a pathological ICP between 12.5 and 35 mm Hg were included. The changes in ICP, mean arterial blood pressure (MABP) and cerebral perfusion pressure CPP (=[…]) were expressed as percentage of the initial value at onset of the treatment. Screening procedure: On a weekly base, 4 treated groups of 3 rats were compared with 3 saline treated animals. Since conventional statistical methods require a larger amount of animals, a sequential procedure was used. Sequential methods operate in different stages. At each stage, a group of animals was selected as homogeneous as possible. Animals were randomly allocated to either drugs or saline. The procedure allowed to make the decision of rejecting the drug, accepting the drug as active or to continue with a new group of animals in a next stage. Given the biological relevant level of activity that must be detected, the expected fraction of false positive and negative results was known and fixed. A sequential two-sample grouped rank test was used. […] Despite the variability in the individual data, the procedure consistently accepted reference treatments such as mannitol as active, while controls were rejected.
# Treatment was started at 20 min after severe head injury and involved administering a dose of 0.5 mg/kg/min during 10 minutes, followed by 0.1 mg/kg/min during 50 min.
# [2] = tested on: Sprague-Dawley rats; test: Dose response of a 10 min infusion in the rat CHI model; assay type: in vivo
# Excerpt: A clinically relevant rat model for traumatic brain injury was used to test the compounds according to the invention. This model mimics several clinical features of traumatic brain injury, such as increased ICP, decreased cerebral perfusion pressure, morphologic alterations including diffuse axonal injury, neuronal necrosis and contusion, impairment of autoregulation of cerebral blood flow and reduction of brain oxygenation and was applied for screening drugs with ICP-lowering effects. Trauma was induced in intubated, isoflurane anesthetized (1.5% isoflurane in a mixture of 30% O2 and 70% N2O) Sprague-Dawley rats (380-400 g) stereotaxically positioned on a table mounted on 4 springs. A 400 g steel cylinder, protected with a 9 mm diameter silicon disc, was dropped on the unprotected skull from a height of either 70 cm or 50 cm (respectively ‘severe’ and ‘moderate’ head injury). The impact area was centered between bregma and lamda. ICP was recorded using a Codman microsensor probe inserted in the parietal cortex. In both severe and moderate head injuries the ICP increased immediately after trauma and remained elevated for several days. The severe head injury mode was used for the evaluation of pharmacological effects immediately after trauma (screening procedure). When survival and recovery from anesthesia was envisaged, the moderate head injury mode was applied. In pharmacological studies, animals with a pathological ICP between 12.5 and 35 mm Hg were included. The changes in ICP, mean arterial blood pressure (MABP) and cerebral perfusion pressure CPP (=[…]) were expressed as percentage of the initial value at onset of the treatment. Screening procedure: On a weekly base, 4 treated groups of 3 rats were compared with 3 saline treated animals. Since conventional statistical methods require a larger amount of animals, a sequential procedure was used. Sequential methods operate in different stages. […] Given the biological relevant level of activity that must be detected, the expected fraction of false positive and negative results was known and fixed. […]
# [3] = tested on: rat brain; test: Near-infrared spectroscopy (NIRS) of the rat brain: brain hemoglobin concentration and oxygenation after moderate head injury; assay type: in vivo; settings: 24 h after moderate head injury; i.v. 0.5 mg/kg.min 10 min then 0.1 mg/kg.min 45 min
# Excerpt: Near-infrared spectroscopy (NIRS) of the rat brain ‘in vivo’ allows to quantify non-invasively saturation of brain haemoglobin with oxygen (HbSat) and total brain haemoglobin concentration ([HbTot]). The latter is a measure for cerebral blood volume (CBV). Changes in the redox state of the mitochondrial enzyme cytochrome oxidase (CytOx), an indicator for tissue oxygenation, can also be monitored.
# HbSat is not affected by compound 1 and the racemate (Comp. 1 and Comp. 2).
# [4] = tested on: traumatized rats; test: Repeated application on elevated ICP in traumatized rats; assay type: in vivo, rat; settings: i.v. 1 mg/kg/min during 10 min, repeated, FIG. 3
# Description: Compound 1 was given 2 times with intermittent periods of 20 min at a i.v. dose of 1 mg/kg/min during 10 min, starting a first time 20 min after induction of severe head injury.
# Mannitol was given i.v. in the same time windows as Compound 1 at a dose of 0.125 g/kg/min. The control animals received the solvent (containing 10% HP-β-CD, pH 4) only.
# This effect is amplified after termination of each, infusion period.
# [5] = tested on: rabbits; test: Cold lesion-induced rise of ICP in rabbits; assay type: in vivo, rabbit; settings: rabbits one day after cryo-lesion
# Description: Cryo-lesions were induced in adult rabbits to obtain a pathological ICP that is caused by tissue oedema. A 8 mm stainless steel rod was placed at predetermined coordinates on the exposed skull of deeply anaesthetised rabbits and cooled for […] with liquid nitrogen. One day later the animals were re-anaesthetised and ICP and blood pressure continuously recorded as described for the rat. After a stabilisation period of 15 min, Compound 1 was infused for 10 min at a dose of 2 mg/kg/min. Solvent (preclinical formulation containing 10% HP-β-CD, pH 4) was given for 10 min at a rate of […].
# [6] = tested on: non-traumatised rats; test: ICP, MABP and CPP in anaesthetised non-traumatised rats; assay type: in vivo, rat; settings: i.v. 0.5 mg/kg/min during 10 minutes, followed by 0.1 mg/kg/min during 50 min
# Description: The effect of Compound 2, Compound 1 and Racemate (comp. 1 and comp. 2) on ICP, MABP and CPP was tested in anaesthetised non-traumatised rats. The compounds were administered i.v. and the same dose was given as in traumatized rats (0.5 mg/kg/min during 10 minutes, followed by 0.1 mg/kg/min during 50 min).
# [7] = tested on: Rhesus monkeys; test: ICP in anaesthetised non-traumatised Rhesus monkeys; assay type: in vivo, Rhesus monkey; settings: i.v. infusion 2.5 and 5 mg/kg over 2.5 and 5 min (n=2/condition)
# Description: The effect of Compound 1 on ICP was tested in a limited number of anaesthetised non-traumatised Rhesus monkeys with a i.v. infusion of a dose of 2.5 and 5 mg/kg over 2.5 and 5 min respectively (n=2/condition).
compound,measurement,setting,value
"Cc1nc2n(C)c3ccccc3n2c(=O)c1CCN1CCC(C2c3ccccc3CCn3c2nc2ccccc23)CC1Cc1ccccc1 (single isomer, unassigned) [Compound 1, (B)[(2α,4β)(A)]3-[2-(4-(11,12-dihydro-6H-benzimidazo [2,1-b][3]benzazepin-6-yl)-2-(phenylmethyl)-1-piperidinyl]ethyl]-2,10-dimethyl-pyrimido[1,2-a]benzimidazol-4(10H)-one (E)-2-butenedioate (2:3) hydrate (1:1)]",CPP (%),[1],−1.9%
same,ETCO2 (%),[1],2.2%
same,Heart rate(%),[1],−4.1%
same,ICP (%),[1],−15.4%
same,MABP (%),[1],−3.6%
same,Resp. rate(%),[1],5.3%
same,dose starting at which reduction in ICP is statistically significantly larger than in the solvent-treated group,[2]; 10 min infusion,≥ 1 mg/kg/min
same,effect on ICP during treatment,"[2]; 10 min infusion at 0.125, 0.25, 0.5, 1 and 2 mg/kg/min, FIG. 1",sustained dose-dependent decrease of ICP
same,effect on ICP in the 10 min period following the infusion,"[2]; after 10 min infusion at 0.125-2 mg/kg/min, FIG. 2",highly significant dose-dependent effect on ICP remains present
same,effect on saturation of brain haemoglobin with oxygen (HbSat),[3],not affected
same,effect on total brain haemoglobin concentration [HbTot],[3],do not have a significant effect
same,effect on ICP during infusion,[4]; first 20 min after severe head injury,rapid reduction of ICP
same,effect on ICP after termination of each infusion period,[4],amplified
same,effect on blood pressure,[4],drops during Compound 1 treatment but is restored again after this episode
same,blood pressure during infusion,[5]; 2 mg/kg/min for 10 min,drops
same,effect on ICP during infusion,"[5]; 2 mg/kg/min for 10 min, FIG. 4",no immediate decrease in ICP
same,blood pressure when drug infusion is terminated,[5]; after 2 mg/kg/min for 10 min,comes back to the initial value
same,effect on ICP when drug infusion is terminated,"[5]; after 2 mg/kg/min for 10 min, persists during entire recording period",significant ICP reduction
same,"effect on ICP, MABP and CPP",[6],comparable with those obtained in the traumatized animals
same,pattern of ICP and blood pressure changes during and after infusion,[7],resembles the pattern of changes observed in cryo-lesioned rabbits
